Where two headings read alike, the source gives them in different places.
What was measured:
Format in all cases: cell-based
[1] = tested on: MM.1S cells; assay: Effect of the compound on the proliferation of MM.1S cells (MTS); details: Homo sapiens, MM1.S, 168 h, 7 days, read-out: Cell inhibitory activity (IC50)
In short: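 In 1640 medium + 10% FBS, 20,000 cells per well were treated with 5-fold compound dilutions at 0.2% DMSO for 7 days at 37° C., 5% CO2. MTS was read after 3–4 h as OD490−OD690, inhibition was calculated against DMSO and blank wells, and IC50 was fitted; three independent experiments were run.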

[2] = tested on: Mino cells; assay: Effect of the compound on the proliferation of Mino cells (MTS); details: Homo sapiens, 72 h, 3 days, read-out: Inhibitory activity (IC50)
Protocol: Mino cells were cultured with 1640 plus […] and collected. The cell concentration was diluted according to the action time of 3 days, and 90 ul cell suspension was added to each well of the 96-well cell plate to make the cell count to be 8000. 10 ul of DMSO with a final concentration of 0.2% was added to the control cell wells. The compound was diluted 5-fold with the 10 mM stock solution, and 10 ul was also added to the compound cell wells (the final concentration of DMSO was 0.2%). The cells were placed in a 37° C., […] incubator and incubated for 3 days. After preparing the reaction solution according to the MTS kit (Promega, G5430), 20 μL was added to each well, incubated in a 37° C., 5% CO2 incubator for 3-4 h. Read the 490 nm absorbance value with a microtiter plate, and used the 690 nm absorbance value as the background value and OD490-OD690 as the final initial data. The formula for calculating the inhibition rate of the compound was: inhibition rate=(OD DMSO-ODcompound)/(ODDMSO-Oblank)×100%. The compound's proliferation inhibition IC50 was fitted by Graph Pad Prism 5.0. The experiment was repeated three times, and three parallel experiments were used to calculate the average and standard deviation each time.

[3] = tested on: MV-4-11 cells; assay: Effect of the compound on proliferation of MV-4-11 cells (MTS); details: Homo sapiens
Protocol: MV-4-11 cells were cultured with IMDM plus 10% fetal bovine serum and collected. The cell concentration was diluted according to the action time of 7 days, and 180 ul of cell suspension was added to each well of a 96-well cell plate to make the cell count to be 2000. 20 ul of DMSO with a final concentration of 0.2% was added to the control cell wells. The compound was diluted 5-fold with the 10 mM stock solution, and 20 ul was also added to the compound cell wells (the final concentration of DMSO was 0.2%). The cells were placed in a 37° C., 5% CO2 incubator and incubated for 7 days. After preparing the reaction solution according to the MTS kit (Promega, G5430), 20 μL was added to each well, incubated in a 37° C., 5% CO2 incubator for 3-4 h. Read the 490 nm absorbance value with a microtiter plate, and used the 690 nm absorbance value as the background value and OD490-OD690 as the final initial data. The formula for calculating the inhibition rate of the compound was: inhibition rate=(OD DMSO-ODcompound)/(ODDMSO-Oblank)×100%. The compound's proliferation inhibition IC50 was fitted by Graph Pad Prism 5.0. The experiment was repeated three times, and three parallel experiments were used to calculate the average and standard deviation each time. The cell viability test results were shown in Table 3: A means cell viability IC50<1 μM, B means cell viability 1 μM≤IC50≤20 μM, C means cell viability IC50>20 μM.

[4] = MV4-11, 168 h, 7 days, MTS, read-out: Inhibitory activity (IC50)
[5] = MV4-11, read-out: cytostatic activity (IC50) on MV-4-11 cells

Compound | IC50 [1] [nM] | IC50 [2] [nM] | IC50 [3, 4] [µM] | IC50 [3, 5] [µM]
O=C1CCC(N2Cc3c(OCc4ccc(CN5CCOCC5)cc4)cccc3C2=O)C(=O)N1 (stereo not drawn) [CC-220, reference compound] | < 150 | < 150 | > 20 | > 20
Nc1cccc2c1C(=O)N(C1CCC(=O)NC1=O)C2=O (stereo not drawn) [Pomalidomide, pomalidomide, reference compound] | < 150 | 150 to 20000 | > 20 | > 20
COCCn1ccc2cc(-n3cc(COc4cccc5c4CN(C4CCC(=O)NC4=O)C5=O)nn3)ccc21 (stereo not drawn) [Compound 28] | < 150 | < 150 | < 1 | –
O=C1CCC(N2Cc3c(OCc4cn(-c5cccc(Cl)c5Cl)nn4)cccc3C2=O)C(=O)N1 (stereo not drawn) [Compound 18, 3-(4-((1-(2,3-dichlorophenyl)-1H-1,2,3-triazol-4-)methoxy)-1-oxoisoindolin-2-) piperidine-2,6-dione] | < 150 | < 150 | < 1 | –
O=C1CCC(N2Cc3c(OCc4cn(-c5cccc(OC(F)(F)F)c5)nn4)cccc3C2=O)C(=O)N1 (stereo not drawn) [Compound 20, 3-(1-oxo-4-((1-(3-(trifluoromethoxy)phenyl)-1H-1,2,3-triazol-4-)methoxy)isoindolin-2-) piperidine-2,6-dione] | < 150 | < 150 | 1 to 20 | –
Cc1nc2cccc(N)c2c(=O)n1C1CCC(=O)NC1=O (stereo not drawn) [CC-122, reference compound] | < 150 | 150 to 20000 | > 20 | > 20
O=C1CCC(N2Cc3c(OC[C@@H]4CCN(c5ccc(OC(F)(F)F)cc5)C4)cccc3C2=O)C(=O)N1 (stereo partly drawn) [Compound 70, 3-(1-oxo-4-(((R)-1-(4-(trifluoromethoxy)phenyl)pyrrolin-3-)methoxy)isoindolin-2-) piperidine-2,6-dione] | < 150 | 150 to 20000 | 1 to 20 | –
O=C1CCC(N2Cc3c(OCc4cn(-c5ccc(Cl)c(Cl)c5)nn4)cccc3C2=O)C(=O)N1 (stereo not drawn) [Compound 75, 3-(4-((1-(3,4-dichlorophenyl)-1H-1,2,3-triazol-4-yl)methoxy)-1-isoindolin-2-yl) piperidine-2,6-dione] | < 150 | – | < 1 | –
O=C1CCC(N2Cc3c(OCc4cn(-c5ccc6[nH]ccc6c5)nn4)cccc3C2=O)C(=O)N1 (stereo not drawn) [Compound 26, 3-(4-((1-(1H-indol-5-)-1H-1,2,3-triazol-4-)methoxy)-1-oxoisoindolin-2-) piperidine-2,6-dione] | < 150 | < 150 | < 1 | –
O=C1CCC(N2Cc3c(OC[C@H]4CCN(c5ccc(OC(F)(F)F)cc5)C4)cccc3C2=O)C(=O)N1 (stereo partly drawn) [Compound 71, 3-(1-oxo-4-(((S)-1-(4-(trifluoromethoxy)phenyl)pyrrolin-3-)methoxy)isoindolin-2-) piperidine-2,6-dione] | 150 to 20000 | 150 to 20000 | 1 to 20 | –
O=C1CCC(N2Cc3c(OCc4cn(-c5ccc(OC(F)(F)F)cc5)nn4)cc(F)cc3C2=O)C(=O)N1 (stereo not drawn) [Compound 77, 3-(6-fluoro-1-oxo-4-((1-(4-(trifluoromethoxy)phenyl)-1H-1,2,3-triazol-4-yl)methoxy)isoindolin-2-yl) piperidine-2,6-dione] | < 150 | – | < 1 | –
COC[C@H](Cc1ccccc1)n1cc(COc2cccc3c2CN(C2CCC(=O)NC2=O)C3=O)nn1 (stereo partly drawn) [Compound 55] | < 150 | – | 1 to 20 | –

Source: patent US20220041578A1, “ISOINDOLINE COMPOUND, AND PREPARATION METHOD, PHARMACEUTICAL COMPOSITION, AND APPLICATION OF ISOINDOLINE COMPOUND” (Shanghai Institute of Meteria Medica, Chinese Academy of …, priority 2018, published 2022)
